Laboratory results from patent US4110327A, “2,3 Diketo-piperazinocarbonylamino alkanoic acids and derivatives” (Toyama Chemical Co., Ltd., priority 1974, dated 1978).
Converted amounts (≈) assume the structure as drawn.

What was measured:
Experiment in all cases: MIC against standard strain, plate method
Assay type in all cases: cell-based
[1] = tested on: Staphylococcus aureus 209p; settings: unit assumed
Description: (§1) The minimum inhibitory concentrations (MIC) was determined by the plate method disclosed in "Chemotherapy" (Japan), Vol. 16, (1968), pages 98 - 99. The culture medium used was a Heart infusion agar (pH 7.4). The number of the cells per plate used in the inoculum as 10^4 (10^6 cells/ml).

[2] = tested on: Pseudomonas aeruginosa I.F.O.; settings: unit assumed
Description: as §1

Proteus vulgaris 3027 = settings: Proteus vulgaris 3027, standard strain; unit assumed
Description: as §1

Klebsiella pneumoniae = settings: unit assumed
Description: as §1

Escherichia coli NIHJ = settings: unit assumed
Description: as §1

CN1CCN(C(=O)NC(C(=O)NC2C(=O)N3C(C(=O)O)=C(CSc4nncs4)CSC23)c2ccccc2)C(=O)C1=O (single isomer, unassigned) [compound 64]
MIC [1]: 0.79 µg/mL (≈ 1.28 µM)
MIC [2]: 25 µg/mL (≈ 40.5 µM)
MIC (Proteus vulgaris 3027): 3.13 µg/mL (≈ 5.07 µM)
MIC (Klebsiella pneumoniae): 1.57 µg/mL (≈ 2.54 µM)
MIC (Escherichia coli NIHJ): < 0.1 µg/mL

CCCCCCCCN1CCN(C(=O)NC(C(=O)NC2C(=O)N3C2SC(C)(C)C3C(=O)OCCN2CCCCC2)c2ccccc2)C(=O)C1=O (single isomer, unassigned) [compound 54]
MIC [1]: 0.79 µg/mL (≈ 1.11 µM)
MIC [2]: 12.5 µg/mL (≈ 17.5 µM)
MIC (Proteus vulgaris 3027): 0.79 µg/mL (≈ 1.11 µM)
MIC (Klebsiella pneumoniae): 0.79 µg/mL (≈ 1.11 µM)
MIC (Escherichia coli NIHJ): 0.4 µg/mL (≈ 0.561 µM)

CC1(C)S[C@@H]2[C@H](NC(=O)[C@H](NC(=O)N3CCN(c4ccccc4)C(=O)C3=O)c3ccccc3)C(=O)N2[C@H]1C(=O)O (single isomer, unassigned) [compound 43]
MIC [1]: < 1.57 µg/mL
MIC [2]: 6.25 µg/mL (≈ 11.1 µM)
MIC (Proteus vulgaris 3027): < 1.57 µg/mL
MIC (Klebsiella pneumoniae): 1.57 µg/mL (≈ 2.78 µM)
MIC (Escherichia coli NIHJ): < 1.57 µg/mL

CC1(C)S[C@@H]2[C@H](NC(=O)[C@H](NC(=O)N3CCN(CCO)C(=O)C3)c3ccccc3)C(=O)N2[C@H]1C(=O)O [compound 24]
MIC [1]: 3.13 µg/mL (≈ 6.02 µM)
MIC [2]: 50 µg/mL (≈ 96.2 µM)
MIC (Proteus vulgaris 3027): 25 µg/mL (≈ 48.1 µM)
MIC (Klebsiella pneumoniae): 50 µg/mL (≈ 96.2 µM)
MIC (Escherichia coli NIHJ): < 1.57 µg/mL

CC(=O)N1CCN(C(=O)N[C@@H](C(=O)N[C@@H]2C(=O)N3[C@@H]2SC(C)(C)[C@@H]3C(=O)O)c2ccccc2)C(=O)C1C (stereo partly shown) [compound 4]
MIC [1]: < 1.57 µg/mL
MIC [2]: 25 µg/mL (≈ 47 µM)
MIC (Proteus vulgaris 3027): 3.13 µg/mL (≈ 5.89 µM)
MIC (Klebsiella pneumoniae): 12.5 µg/mL (≈ 23.5 µM)
MIC (Escherichia coli NIHJ): < 1.57 µg/mL

CN1CCN(C(=O)N[C@@H](C(=O)N[C@@H]2C(=O)N3[C@@H]2SC(C)(C)[C@@H]3C(=O)O)c2ccc(O)cc2)C(=O)C1=O (single isomer, unassigned) [compound 48]
MIC [1]: < 0.4 µg/mL
MIC [2]: 6.25 µg/mL (≈ 12 µM)
MIC (Proteus vulgaris 3027): < 0.4 µg/mL
MIC (Klebsiella pneumoniae): 25 µg/mL (≈ 48.1 µM)
MIC (Escherichia coli NIHJ): < 0.4 µg/mL

CC1(C)S[C@@H]2[C@H](NC(=O)[C@H](NC(=O)N3CCN(S(C)(=O)=O)CC3=O)c3ccccc3)C(=O)N2[C@H]1C(=O)O [compound 5]
MIC [1]: < 1.57 µg/mL
MIC [2]: 25 µg/mL (≈ 45.2 µM)
MIC (Proteus vulgaris 3027): < 1.57 µg/mL
MIC (Klebsiella pneumoniae): 12.5 µg/mL (≈ 22.6 µM)
MIC (Escherichia coli NIHJ): < 1.57 µg/mL

CC1(C)S[C@@H]2[C@H](NC(=O)[C@H](NC(=O)N3CCN(C(=O)Nc4ccccc4)C(=O)C3)c3ccccc3)C(=O)N2[C@H]1C(=O)O [compound 33]
MIC [1]: < 1.57 µg/mL
MIC [2]: 50 µg/mL (≈ 84.1 µM)
MIC (Proteus vulgaris 3027): 3.13 µg/mL (≈ 5.26 µM)
MIC (Klebsiella pneumoniae): 6.25 µg/mL (≈ 10.5 µM)
MIC (Escherichia coli NIHJ): < 1.57 µg/mL

CN1CCN(C(=O)NC(C(=O)N[C@@H]2C(=O)N3[C@@H]2SC(C)(C)[C@@H]3C(=O)O)c2cccs2)C(=O)C1=O (stereo partly shown) [compound 58]
MIC [1]: < 1.57 µg/mL
MIC [2]: 12.5 µg/mL (≈ 24.5 µM)
MIC (Proteus vulgaris 3027): 3.13 µg/mL (≈ 6.14 µM)
MIC (Klebsiella pneumoniae): 25 µg/mL (≈ 49.1 µM)
MIC (Escherichia coli NIHJ): < 1.57 µg/mL

CC(C)CCN1CCN(C(=O)N[C@@H](C(=O)N[C@@H]2C(=O)N3[C@@H]2SC(C)(C)[C@@H]3C(=O)O)c2ccccc2)CC1=O [compound 21]
MIC [1]: < 0.79 µg/mL
MIC [2]: 25 µg/mL (≈ 45.8 µM)
MIC (Proteus vulgaris 3027): 3.13 µg/mL (≈ 5.74 µM)
MIC (Klebsiella pneumoniae): 25 µg/mL (≈ 45.8 µM)
MIC (Escherichia coli NIHJ): 1.57 µg/mL (≈ 2.88 µM)

CC1(C)S[C@@H]2[C@H](NC(=O)[C@H](NC(=O)N3CCN(CCCl)C(=O)C3=O)c3ccccc3)C(=O)N2[C@H]1C(=O)O [compound 44]
MIC [1]: < 1.57 µg/mL
MIC [2]: 6.25 µg/mL (≈ 11.3 µM)
MIC (Proteus vulgaris 3027): < 1.57 µg/mL
MIC (Klebsiella pneumoniae): < 1.57 µg/mL
MIC (Escherichia coli NIHJ): < 1.57 µg/mL

CN1CCN(C(=O)NC(C(=O)NC2C(=O)N3C2SC(C)(C)C3C(=O)OCCN2CCOCC2)c2ccccc2)C(=O)C1=O (single isomer, unassigned) [compound 55]
MIC [1]: 0.79 µg/mL (≈ 1.28 µM)
MIC [2]: 6.25 µg/mL (≈ 10.1 µM)
MIC (Proteus vulgaris 3027): 0.79 µg/mL (≈ 1.28 µM)
MIC (Klebsiella pneumoniae): 25 µg/mL (≈ 40.5 µM)
MIC (Escherichia coli NIHJ): 0.4 µg/mL (≈ 0.649 µM)

CC1(C)S[C@@H]2[C@H](NC(=O)[C@H](NC(=O)N3CCN(C(=O)c4ccccc4)CC3=O)c3ccccc3)C(=O)N2[C@H]1C(=O)O [compound 7]
MIC [1]: < 1.57 µg/mL
MIC [2]: 200 µg/mL (≈ 345 µM)
MIC (Proteus vulgaris 3027): 6.25 µg/mL (≈ 10.8 µM)
MIC (Klebsiella pneumoniae): 12.5 µg/mL (≈ 21.6 µM)
MIC (Escherichia coli NIHJ): < 1.57 µg/mL

C=CCN1CCN(C(=O)N[C@@H](C(=O)N[C@@H]2C(=O)N3[C@@H]2SC(C)(C)[C@@H]3C(=O)O)c2ccccc2)CC1=O [compound 25]
MIC [1]: < 1.57 µg/mL
MIC [2]: 25 µg/mL (≈ 48.5 µM)
MIC (Proteus vulgaris 3027): 3.13 µg/mL (≈ 6.07 µM)
MIC (Klebsiella pneumoniae): 50 µg/mL (≈ 97 µM)
MIC (Escherichia coli NIHJ): < 1.57 µg/mL
